Measurements published in ChEMBL document CHEMBL4138123, “Design, synthesis and biological evaluation of novel pyrazolochalcones as potential modulators of PI3K/Akt/mTOR pathway and inducers of apoptosis in breast cancer cells” (Eur J Med Chem, 2017).

Tests used:
Format in all cases: functional
[1] = system: SF-295; experiment: Cytotoxicity against human SF295 cells assessed as growth inhibition after 48 hrs by sulforhodamine B assay; conditions: SF-295, 48 h
[2] = system: SNB-75; experiment: Cytotoxicity against human SNB75 cells assessed as growth inhibition after 48 hrs by sulforhodamine B assay; conditions: SNB-75, 48 h
[3] = system: CAKI-1; experiment: Cytotoxicity against human Caki1 cells assessed as growth inhibition after 48 hrs by sulforhodamine B assay; conditions: CAKI-1, 48 h
[4] = system: CAKI-1; experiment: Cytotoxicity against human Caki1 cells assessed as cell growth at 0.01 uM after 48 hrs by sulforhodamine B assay relative to control; conditions: CAKI-1, 48 h, read-out: Activity
[5] = system: SNB-75; experiment: Cytotoxicity against human SNB75 cells assessed as cell growth at 0.01 uM after 48 hrs by sulforhodamine B assay relative to control; conditions: SNB-75, 48 h, read-out: Activity
[6] = system: SF-295; experiment: Cytotoxicity against human SF295 cells assessed as cell growth at 0.01 uM after 48 hrs by sulforhodamine B assay relative to control; conditions: SF-295, 48 h, read-out: Activity
[7] = system: SF-295; experiment: Cytotoxicity against human SF295 cells assessed as cell growth at 0.1 uM after 48 hrs by sulforhodamine B assay relative to control; conditions: SF-295, 48 h, read-out: Activity
[8] = system: SNB-75; experiment: Cytotoxicity against human SNB75 cells assessed as cell growth at 0.1 uM after 48 hrs by sulforhodamine B assay relative to control; conditions: SNB-75, 48 h, read-out: Activity
[9] = system: CAKI-1; experiment: Cytotoxicity against human Caki1 cells assessed as cell growth at 0.1 uM after 48 hrs by sulforhodamine B assay relative to control; conditions: CAKI-1, 48 h, read-out: Activity
[10] = system: SF-295; experiment: Cytotoxicity against human SF295 cells assessed as cell growth at 1 uM after 48 hrs by sulforhodamine B assay relative to control; conditions: SF-295, 48 h, read-out: Activity
[11] = system: SNB-75; experiment: Cytotoxicity against human SNB75 cells assessed as cell growth at 1 uM after 48 hrs by sulforhodamine B assay relative to control; conditions: SNB-75, 48 h, read-out: Activity
[12] = system: CAKI-1; experiment: Cytotoxicity against human Caki1 cells assessed as cell growth at 1 uM after 48 hrs by sulforhodamine B assay relative to control; conditions: CAKI-1, 48 h, read-out: Activity
[13] = system: SF-295; experiment: Cytotoxicity against human SF295 cells assessed as cell growth at 10 uM after 48 hrs by sulforhodamine B assay relative to control; conditions: SF-295, 48 h, read-out: Activity
[14] = system: SNB-75; experiment: Cytotoxicity against human SNB75 cells assessed as cell growth at 10 uM after 48 hrs by sulforhodamine B assay relative to control; conditions: SNB-75, 48 h, read-out: Activity
[15] = system: CAKI-1; experiment: Cytotoxicity against human Caki1 cells assessed as cell growth at 10 uM after 48 hrs by sulforhodamine B assay relative to control; conditions: CAKI-1, 48 h, read-out: Activity
[16] = system: SF-295; experiment: Cytotoxicity against human SF295 cells assessed as cell growth at 100 uM after 48 hrs by sulforhodamine B assay relative to control; conditions: SF-295, 48 h, read-out: Activity
[17] = system: SNB-75; experiment: Cytotoxicity against human SNB75 cells assessed as cell growth at 100 uM after 48 hrs by sulforhodamine B assay relative to control; conditions: SNB-75, 48 h, read-out: Activity
[18] = system: CAKI-1; experiment: Cytotoxicity against human Caki1 cells assessed as cell growth at 100 uM after 48 hrs by sulforhodamine B assay relative to control; conditions: CAKI-1, 48 h, read-out: Activity
[19] = system: HOP-92; experiment: Cytotoxicity against human HOP92 cells assessed as growth inhibition after 48 hrs by sulforhodamine B assay; conditions: HOP-92, 48 h; for CC50: read-out: LC50 (the source's name)
[20] = system: SK-MEL-2; experiment: Cytotoxicity against human SK-MEL-2 cells assessed as cell growth at 0.01 uM after 48 hrs by sulforhodamine B assay relative to control; conditions: SK-MEL-2, 48 h, read-out: Activity
[21] = system: LOX IMVI; experiment: Cytotoxicity against human LOXIMVI cells assessed as cell growth at 0.01 uM after 48 hrs by sulforhodamine B assay relative to control; conditions: read-out: Activity
[22] = system: HOP-92; experiment: Cytotoxicity against human HOP92 cells assessed as cell growth at 0.01 uM after 48 hrs by sulforhodamine B assay relative to control; conditions: HOP-92, 48 h, read-out: Activity
[23] = system: HOP-92; experiment: Cytotoxicity against human HOP92 cells assessed as cell growth at 0.1 uM after 48 hrs by sulforhodamine B assay relative to control; conditions: HOP-92, 48 h, read-out: Activity
[24] = system: LOX IMVI; experiment: Cytotoxicity against human LOXIMVI cells assessed as cell growth at 0.1 uM after 48 hrs by sulforhodamine B assay relative to control; conditions: read-out: Activity
[25] = system: SK-MEL-2; experiment: Cytotoxicity against human SK-MEL-2 cells assessed as cell growth at 0.1 uM after 48 hrs by sulforhodamine B assay relative to control; conditions: SK-MEL-2, 48 h, read-out: Activity
[26] = system: HOP-92; experiment: Cytotoxicity against human HOP92 cells assessed as cell growth at 1 uM after 48 hrs by sulforhodamine B assay relative to control; conditions: HOP-92, 48 h, read-out: Activity
[27] = system: LOX IMVI; experiment: Cytotoxicity against human LOXIMVI cells assessed as cell growth at 1 uM after 48 hrs by sulforhodamine B assay relative to control; conditions: read-out: Activity
[28] = system: SK-MEL-2; experiment: Cytotoxicity against human SK-MEL-2 cells assessed as cell growth at 1 uM after 48 hrs by sulforhodamine B assay relative to control; conditions: SK-MEL-2, 48 h, read-out: Activity
[29] = system: HOP-92; experiment: Cytotoxicity against human HOP92 cells assessed as cell growth at 10 uM after 48 hrs by sulforhodamine B assay relative to control; conditions: HOP-92, 48 h, read-out: Activity
[30] = system: LOX IMVI; experiment: Cytotoxicity against human LOXIMVI cells assessed as cell growth at 10 uM after 48 hrs by sulforhodamine B assay relative to control; conditions: read-out: Activity
[31] = system: SK-MEL-2; experiment: Cytotoxicity against human SK-MEL-2 cells assessed as cell growth at 10 uM after 48 hrs by sulforhodamine B assay relative to control; conditions: SK-MEL-2, 48 h, read-out: Activity
[32] = system: HOP-92; experiment: Cytotoxicity against human HOP92 cells assessed as cell growth at 100 uM after 48 hrs by sulforhodamine B assay relative to control; conditions: HOP-92, 48 h, read-out: Activity
[33] = system: LOX IMVI; experiment: Cytotoxicity against human LOXIMVI cells assessed as cell growth at 100 uM after 48 hrs by sulforhodamine B assay relative to control; conditions: read-out: Activity
[34] = system: SK-MEL-2; experiment: Cytotoxicity against human SK-MEL-2 cells assessed as cell growth at 100 uM after 48 hrs by sulforhodamine B assay relative to control; conditions: SK-MEL-2, 48 h, read-out: Activity

| SMILES | GI50 [1] [µM] | LC50 [1] [µM] | TGI [1] [µM] | GI50 [2] [µM] | growth at 0.01 µM [6] [%] | growth at 0.1 µM [7] [%] | growth at 1 µM [10] [%] | growth at 10 µM [13] [%] | growth at 100 µM [16] [%] | GI50 [19] [µM] | TGI [19] [µM] | CC50 [19] [µM] | growth at 0.01 µM [20] [%] | growth at 0.01 µM [21] [%] | growth at 0.01 µM [22] [%] | growth at 0.1 µM [23] [%] | growth at 0.1 µM [24] [%] | growth at 0.1 µM [25] [%] | growth at 1 µM [26] [%] | growth at 1 µM [27] [%] | further results |
| --- | --- | --- | --- | --- | --- | --- | --- | --- | --- | --- | --- | --- | --- | --- | --- | --- | --- | --- | --- | --- | --- |
| COc1cc2c(cc1OC)C(=O)/C(=C/c1cc(-c3ccc4c(c3)OCO4)n[nH]1)C2 | 1.64 | 6.5 | 3.26 | 1.65 | 95 | 95 | 86 | -81 | -93 | – | – | – | – | – | – | – | – | – | – | – | LC50 (concentration killing 50% of cells) [2]: 5.51 µM; TGI [2]: 3.02 µM; GI50 [3]: 1.5 µM; LC50 [3]: 6 µM; TGI [3]: 3 µM; growth at 0.01 µM [4]: 98%; growth at 0.01 µM [5]: 85%; growth at 0.1 µM [8]: 94%; growth at 0.1 µM [9]: 97%; growth at 1 µM [11]: 92%; growth at 1 µM [12]: 79%; growth at 10 µM [14]: -100%; growth at 10 µM [15]: -87%; growth at 100 µM [17]: -96%; growth at 100 µM [18]: -81% |
| COc1ccc(-c2cc(/C=C/C(=O)c3ccc(N)cc3)[nH]n2)cc1OC | 3.58 | 42.9 | 15.2 | 2.74 | 83 | 90 | 87 | 20 | -91 | 1.49 | 30.9 | 63.9 | 103 | 100 | 86 | 87 | 102 | 109 | 87 | 96 | LC50 (concentration killing 50% of cells) [2]: 39 µM; TGI [2]: 14.2 µM; growth at 0.01 µM [5]: 81%; growth at 0.1 µM [8]: 92%; growth at 1 µM [11]: 75%; growth at 1 µM [28]: 102%; growth at 10 µM [29]: 77%; growth at 10 µM [14]: 17%; growth at 10 µM [30]: -66%; growth at 10 µM [31]: 46%; growth at 100 µM [32]: -81%; growth at 100 µM [17]: -97%; growth at 100 µM [33]: -81%; growth at 100 µM [34]: -86% |
| COc1cc(-c2cc(/C=C/C(=O)c3ccc(Cl)c(Cl)c3)[nH]n2)cc(OC)c1OC | – | – | – | – | – | – | – | – | – | – | 8.25 | 75.9 | 94 | 96 | 89 | 90 | 92 | 88 | 89 | 88 | LC50 [3]: > 100 µM; TGI [3]: > 100 µM; growth at 0.01 µM [4]: 91%; growth at 0.1 µM [9]: 91%; growth at 1 µM [28]: 99%; growth at 1 µM [12]: 87%; growth at 10 µM [29]: -8%; growth at 10 µM [30]: 16%; growth at 10 µM [31]: 68%; growth at 10 µM [15]: 62%; growth at 100 µM [32]: -56%; growth at 100 µM [33]: -58%; growth at 100 µM [34]: -60%; growth at 100 µM [18]: 11% |
| COc1cc(-c2cc(/C=C/C(=O)c3ccc(N)cc3)[nH]n2)cc(OC)c1OC | 2.55 | 34.8 | 10.9 | – | 88 | 89 | 82 | 4 | -95 | 3.68 | 27.6 | > 100 | 106 | 98 | 88 | 82 | 99 | 111 | 79 | 83 | growth at 1 µM [28]: 104%; growth at 10 µM [29]: 28%; growth at 10 µM [30]: -78%; growth at 10 µM [31]: -15%; growth at 100 µM [32]: -35%; growth at 100 µM [33]: -82%; growth at 100 µM [34]: -85% |
| COc1ccc(-c2cc(/C=C/C(=O)c3ccc4c(c3)OCO4)[nH]n2)cc1OC | 1.6 | – | – | 1.16 | – | – | – | – | – | 1.97 | – | – | – | – | – | – | – | – | – | – | – |
